This is an account of results in PMC6037779, “Repurposing drugs to target the malaria parasite unfolding protein response” (Scientific Reports, 2018).

The subject of the assay is Plasmodium falciparum W2. The assay is described as follows: In vitro growth inhibition assay (SYBR Green I), strain W2. In kind it is cell-based. The conditions noted are these: Plasmodium falciparum, W2; chloroquine-resistant strain; 72 hours; average of three ± SD; read-out: EC50, growth inhibition, P. falciparum W2. On the procedure:
A major goal of our study was to evaluate the drug target potential of P. falciparum GRP78, thus we evaluated the effect of the chaperone inhibition on the malaria parasite. Our approach took advantage of several GRP78 inhibitors (Fig. 3a) previously characterized against human cancer cell lines, which were commercially available[20],[24]–[27]. These compounds were tested against two different parasite strains with opposite sensitivity towards the antimalarial drug chloroquine, 3D7 (sensitive) and W2 (resistant). […] A synchronized P. falciparum culture, with over 80% ring forms, was used in the growth inhibition assay. Each strain was assayed at 0.5% parasitaemia and 1.5% hematocrit. A 190 µL aliquot of parasite culture was dispensed per well to microplates that were pre-dispensed with the compounds at various dilutions. […] Dilutions of GRP78 inhibitors and DHA were prepared in water with a final concentration of DMSO below 0.05% (v/v). […] After incubation, the plates were subject to a freeze-thaw cycle (−80 °C) and the parasite growth was quantified by the SYBR Green I method as previously described. Briefly, 100 µl of homogenized parasite culture was transferred into 96-well black plates. 100 µl of SYBR Green lysis buffer (2x SYBR Green I, 100 mM Tris-HCl pH 7.5, 10 mM EDTA, 0.016% Saponin and 1.6% Triton X-100) were added to each well. The plates were incubated at room temperature in darkness for 1 hour.
Growth inhibition experiments were conducted at least three times per compound. […] The statistical analysis was performed with the software Prism 7 (GraphPad Software, San Diego, CA).

For `COc1ccc(-c2nc(-c3cc(C(F)(F)F)cc(C(F)(F)F)c3)n(Cc3ccc(C(N)=O)cc3)c2-c2ccc(OC)cc2)cc1` [Apoptozole], the concentration for a half-maximal effect (EC50) was 4.5 ± 0.4 µM.
